Assay results as given in ChEMBL document CHEMBL1137292, “Synthesis and activity of a folate peptide camptothecin prodrug” (Bioorg Med Chem Lett, 2006).
pIC50: −log10 of the molar value. Starred links: 1 amine or outer side, 2 acyl side, 3 side chain; linkers in the order of their positions; H or OH if unused. Residues, ends and D or L forms follow the SMILES beside them. *: point of attachment. S(CH2)2OCO2(CPT-20-yl) = CC[C@@]1(OC(=O)OCCS*)C(=O)OCc2c1cc1n(c2=O)Cc2cc3ccccc3nc2-1; Pteroyl = Nc1nc2ncc(CNc3ccc(C(=O)*)cc3)nc2c(=O)[nH]1; γGlu = O=C(O)[C@H](CCC(=O)[*:2])N[*:1]

Legend:
KB = assay: Antiproliferative activity against human KB cells expressing FR in presence of folic acid after 72 hrs by [3H]thymidine incorporation assay; assay type: functional, cell-based
[1] = biological target: Folate receptor alpha (Homo sapiens) (UniProt P15328); assay: Displacement of [3H]folic acid from human folate receptor expressed in KB cells relative to folic acid; assay type: cell-based
Sequence of Folate receptor alpha (Homo sapiens) (P15328 25-234 limits assumed): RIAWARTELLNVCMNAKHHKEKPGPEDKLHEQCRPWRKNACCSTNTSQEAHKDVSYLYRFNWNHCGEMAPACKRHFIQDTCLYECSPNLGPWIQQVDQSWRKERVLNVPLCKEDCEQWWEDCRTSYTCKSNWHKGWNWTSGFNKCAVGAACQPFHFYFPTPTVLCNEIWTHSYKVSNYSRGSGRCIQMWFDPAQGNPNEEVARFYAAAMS

- pIC50 (KB): 8.00
- relative binding affinity (RBA) [1]: 0.44
Structure (SMILES): CC[C@@]1(OC(=O)OCCSSC[C@H](NC(=O)[C@H](CC(=O)O)NC(=O)[C@H](CC(=O)O)NC(=O)[C@H](CCCNC(=N)N)NC(=O)[C@H](CC(=O)O)NC(=O)CC[C@H](NC(=O)c2ccc(NCc3cnc4nc(N)[nH]c(=O)c4n3)cc2)C(=O)O)C(=O)O)C(=O)OCc2c1cc1n(c2=O)Cc2cc3ccccc3nc2-1 ({Pteroyl-γGlu}-DRDDC(S(CH2)2OCO2(CPT-20-yl))-OH)
